Patent US11986493B2 (University of Pittsburgh—Of the Commonwealth System of …, priority 2013, dated 2024)

Test system: subjects with pulmonary hypertension
Assay: Systemic blood pressure (noninvasive) and heart rate monitoring during the study
Experimental: During the study right heart/pulmonary artery hemodynamics were measured as well as noninvasive systemic blood pressure monitoring and simultaneous RV echocardiography. Subjects were tested for the changes in pulmonary vascular resistance (PVR) measured by right heart catheterization and using thermodilution cardiac output measurement at time zero, at times 15, 30 and 45 minutes after completion of each nebulization dose.
Subjects were monitored closely for changes in blood pressure during the study. […] Subjects were continued to be monitored closely every 10 minutes for 2 hours.

[1] = Patient 1, nitrite 45 mg inhaled, 15 min
[2] = Patient 1, nitrite 45 mg inhaled, 30 min
[3] = Patient 1, nitrite 45 mg inhaled, 45 min
[4] = Patient 1, nitrite 45 mg inhaled, 60 min
[5] = Patient 1, nitrite 90 mg inhaled, 15 min
[6] = Patient 1, nitrite 90 mg inhaled, 30 min
[7] = Patient 1, nitrite 90 mg inhaled, 45 min
[8] = Patient 1, nitrite 90 mg inhaled, 60 min
[9] = Patient 2, nitrite 45 mg inhaled, 15 min
[10] = Patient 2, nitrite 45 mg inhaled, 30 min
[11] = Patient 2, nitrite 45 mg inhaled, 45 min
[12] = Patient 2, nitrite 45 mg inhaled, 60 min
[13] = Patient 2, nitrite 90 mg inhaled, 15 min
[14] = Patient 2, nitrite 90 mg inhaled, 30 min
[15] = Patient 2, nitrite 90 mg inhaled, 45 min
[16] = Patient 2, nitrite 90 mg inhaled, 60 min
[17] = Patient 3, nitrite 45 mg inhaled, 15 min
[18] = Patient 3, nitrite 45 mg inhaled, 30 min
[19] = Patient 3, nitrite 45 mg inhaled, 45 min
[20] = Patient 3, nitrite 45 mg inhaled, 60 min
[21] = Patient 3, nitrite 90 mg inhaled, 15 min
[22] = Patient 3, nitrite 90 mg inhaled, 30 min
[23] = Patient 3, nitrite 90 mg inhaled, 45 min
[24] = Patient 3, nitrite 90 mg inhaled, 60 min
[25] = Patient 4, nitrite 45 mg inhaled, 15 min
[26] = Patient 4, nitrite 45 mg inhaled, 30 min
[27] = Patient 4, nitrite 45 mg inhaled, 45 min
[28] = Patient 4, nitrite 45 mg inhaled, 60 min
[29] = Patient 4, nitrite 90 mg inhaled, 15 min
[30] = Patient 4, nitrite 90 mg inhaled, 30 min
[31] = Patient 4, nitrite 90 mg inhaled, 45 min
[32] = Patient 4, nitrite 90 mg inhaled, 60 min
[33] = Patient 5, nitrite 45 mg inhaled, 15 min
[34] = Patient 5, nitrite 45 mg inhaled, 30 min
[35] = Patient 5, nitrite 45 mg inhaled, 45 min
[36] = Patient 5, nitrite 45 mg inhaled, 60 min
[37] = Patient 5, nitrite 90 mg inhaled, 15 min
[38] = Patient 5, nitrite 90 mg inhaled, 30 min
[39] = Patient 5, nitrite 90 mg inhaled, 45 min
[40] = Patient 5, nitrite 90 mg inhaled, 60 min
[41] = at the doses tested (45 mg and 90 mg inhaled)

For `O=NO` [nitrite, sodium nitrite], the HR [1] was 81, the “Systemic DBP” value [1] was 71 and the “Systemic SBP” value [1] was 109. For the same compound, the “Systemic mBP” value [1] was 83.68, the HR [2] was 83 and the “Systemic DBP” value [2] was 78. For the same compound, the “Systemic SBP” value [2] was 108, the “Systemic mBP” value [2] was 88.01 and the HR [3] was 82. For the same compound, the “Systemic DBP” value [3] was 72, the “Systemic SBP” value [3] was 109 and the “Systemic mBP” value [3] was 84.34. For the same compound, the HR [4] was 88, the “Systemic DBP” value [4] was 78 and the “Systemic SBP” value [4] was 108. The “Systemic mBP” value [4] was 88.01, the HR [5] was 93 and the “Systemic DBP” value [5] was 67. For the same compound, the “Systemic SBP” value [5] was 97, the “Systemic mBP” value [5] was 77.01 and the HR [6] was 93. For the same compound, the “Systemic DBP” value [6] was 66, the “Systemic SBP” value [6] was 102 and the “Systemic mBP” value [6] was 78.01. The HR [7] was 94, the “Systemic DBP” value [7] was 62 and the “Systemic SBP” value [7] was 102. For the same compound, the “Systemic mBP” value [7] was 75.34, the HR [8] was 92 and the “Systemic DBP” value [8] was 67. The “Systemic SBP” value [8] was 105, the “Systemic mBP” value [8] was 79.68 and the HR [9] was 74. For the same compound, the “Systemic DBP” value [9] was 82, the “Systemic SBP” value [9] was 136 and the “Systemic mBP” value [9] was 100.01. The HR [10] was 73, the “Systemic DBP” value [10] was 75 and the “Systemic SBP” value [10] was 137. For the same compound, the “Systemic mBP” value [10] was 95.68, the HR [11] was 75 and the “Systemic DBP” value [11] was 75. For the same compound, the “Systemic SBP” value [11] was 137, the “Systemic mBP” value [11] was 95.68 and the HR [12] was 77. For the same compound, the “Systemic DBP” value [12] was 68, the “Systemic SBP” value [12] was 132 and the “Systemic mBP” value [12] was 89.34. The HR [13] was 74, the “Systemic DBP” value [13] was 76 and the “Systemic SBP” value [13] was 142. For the same compound, the “Systemic mBP” value [13] was 98.01, the HR [14] was 74 and the “Systemic DBP” value [14] was 77. The “Systemic SBP” value [14] was 132, the “Systemic mBP” value [14] was 95.34 and the HR [15] was 76. The “Systemic DBP” value [15] was 81, the “Systemic SBP” value [15] was 141 and the “Systemic mBP” value [15] was 101.01. The HR [16] was 77, the “Systemic DBP” value [16] was 78 and the “Systemic SBP” value [16] was 143. The “Systemic mBP” value [16] was 99.68, the HR [17] was 63 and the “Systemic DBP” value [17] was 55. For the same compound, the “Systemic SBP” value [17] was 96, the “Systemic mBP” value [17] was 68.67 and the HR [18] was 51. For the same compound, the “Systemic DBP” value [18] was 56, the “Systemic SBP” value [18] was 95 and the “Systemic mBP” value [18] was 69.01. The HR [19] was 67, the “Systemic DBP” value [19] was 59 and the “Systemic SBP” value [19] was 92. The “Systemic mBP” value [19] was 70.01, the HR [20] was 63 and the “Systemic DBP” value [20] was 52. For the same compound, the “Systemic SBP” value [20] was 106, the “Systemic mBP” value [20] was 70.01 and the HR [21] was 68. For the same compound, the “Systemic DBP” value [21] was 54, the “Systemic SBP” value [21] was 100 and the “Systemic mBP” value [21] was 69.34. For the same compound, the HR [22] was 71, the “Systemic DBP” value [22] was 58 and the “Systemic SBP” value [22] was 102. The “Systemic mBP” value [22] was 72.68, the HR [23] was 70 and the “Systemic DBP” value [23] was 54. The “Systemic SBP” value [23] was 100, the “Systemic mBP” value [23] was 69.34 and the HR [24] was 72. For the same compound, the “Systemic DBP” value [24] was 59, the “Systemic SBP” value [24] was 103 and the “Systemic mBP” value [24] was 73.68. The HR [25] was 72, the “Systemic DBP” value [25] was 73 and the “Systemic SBP” value [25] was 137. The “Systemic mBP” value [25] was 94.34, the HR [26] was 69 and the “Systemic DBP” value [26] was 77. For the same compound, the “Systemic SBP” value [26] was 134, the “Systemic mBP” value [26] was 96.01 and the HR [27] was 72. The “Systemic DBP” value [27] was 71, the “Systemic SBP” value [27] was 134 and the “Systemic mBP” value [27] was 92.01. The HR [28] was 71, the “Systemic DBP” value [28] was 71 and the “Systemic SBP” value [28] was 131. For the same compound, the “Systemic mBP” value [28] was 91.01, the HR [29] was 61 and the “Systemic DBP” value [29] was 64. The “Systemic SBP” value [29] was 120, the “Systemic mBP” value [29] was 82.68 and the HR [30] was 70. The “Systemic DBP” value [30] was 68, the “Systemic SBP” value [30] was 126 and the “Systemic mBP” value [30] was 87.34. The HR [31] was 63, the “Systemic DBP” value [31] was 63 and the “Systemic SBP” value [31] was 121. For the same compound, the “Systemic mBP” value [31] was 82.34, the HR [32] was 63 and the “Systemic DBP” value [32] was 66. The “Systemic SBP” value [32] was 129, the “Systemic mBP” value [32] was 87.01 and the HR [33] was 58. The “Systemic DBP” value [33] was 49, the “Systemic SBP” value [33] was 91 and the “Systemic mBP” value [33] was 63.01. The HR [34] was 53, the “Systemic DBP” value [34] was 52 and the “Systemic SBP” value [34] was 95. For the same compound, the “Systemic mBP” value [34] was 66.34, the HR [35] was 65 and the “Systemic DBP” value [35] was 52. For the same compound, the “Systemic SBP” value [35] was 98, the “Systemic mBP” value [35] was 67.34 and the HR [36] was 62. For the same compound, the “Systemic DBP” value [36] was 45, the “Systemic SBP” value [36] was 95 and the “Systemic mBP” value [36] was 61.67. For the same compound, the HR [37] was 59, the “Systemic DBP” value [37] was 53 and the “Systemic SBP” value [37] was 100. The “Systemic mBP” value [37] was 68.68, the HR [38] was 61 and the “Systemic DBP” value [38] was 49. The “Systemic SBP” value [38] was 102, the “Systemic mBP” value [38] was 66.68 and the HR [39] was 65. For the same compound, the “Systemic DBP” value [39] was 47, the “Systemic SBP” value [39] was 94 and the “Systemic mBP” value [39] was 62.67. For the same compound, the HR [40] was 58, the “Systemic DBP” value [40] was 54 and the “Systemic SBP” value [40] was 107. For the same compound, the “Systemic mBP” value [40] was 71.68, the HR (Patient 6, nitrite 45, 15 min) was 95 and the “Systemic DBP” value (Patient 6, nitrite 45, 15 min) was 58. The “Systemic SBP” value (Patient 6, nitrite 45, 15 min) was 110, the “Systemic mBP” value (Patient 6, nitrite 45, 15 min) was 75.3426 and the HR (Patient 6, nitrite 45, 30 min) was 99. The “Systemic DBP” value (Patient 6, nitrite 45, 30 min) was 65, the “Systemic SBP” value (Patient 6, nitrite 45, 30 min) was 127 and the “Systemic mBP” value (Patient 6, nitrite 45, 30 min) was 85.6773. For the same compound, the HR (Patient 6, nitrite 45, 45 min) was 96, the “Systemic DBP” value (Patient 6, nitrite 45, 45 min) was 66 and the “Systemic SBP” value (Patient 6, nitrite 45, 45 min) was 126. The “Systemic mBP” value (Patient 6, nitrite 45, 45 min) was 86.0106, the HR (Patient 6, nitrite 45, 60 min) was 97 and the “Systemic DBP” value (Patient 6, nitrite 45, 60 min) was 65. The “Systemic SBP” value (Patient 6, nitrite 45, 60 min) was 128, the “Systemic mBP” value (Patient 6, nitrite 45, 60 min) was 86.0107 and the HR (Patient 6, nitrite 90, 15 min) was 93. The “Systemic DBP” value (Patient 6, nitrite 90, 15 min) was 59, the “Systemic SBP” value (Patient 6, nitrite 90, 15 min) was 112 and the “Systemic mBP” value (Patient 6, nitrite 90, 15 min) was 76.6761. The HR (Patient 6, nitrite 90, 30 min) was 95, the “Systemic DBP” value (Patient 6, nitrite 90, 30 min) was 66 and the “Systemic SBP” value (Patient 6, nitrite 90, 30 min) was 110. The “Systemic mBP” value (Patient 6, nitrite 90, 30 min) was 80.6762, the HR (Patient 6, nitrite 90, 45 min) was 90 and the “Systemic DBP” value (Patient 6, nitrite 90, 45 min) was 60. For the same compound, the “Systemic SBP” value (Patient 6, nitrite 90, 45 min) was 114, the “Systemic mBP” value (Patient 6, nitrite 90, 45 min) was 78.0096 and the HR (Patient 6, nitrite 90, 60 min) was 91. For the same compound, the “Systemic DBP” value (Patient 6, nitrite 90, 60 min) was 58, the “Systemic SBP” value (Patient 6, nitrite 90, 60 min) was 111 and the “Systemic mBP” value (Patient 6, nitrite 90, 60 min) was 75.676. The heart rate [41] was “does not significantly affect” and the systemic blood pressure [41] was “does not significantly affect”.
